Experiment [1] has as its target T1, EGR-1 (Homo sapiens, UniProt P18146). As to the kind of experiment: Electrophoretic mobility shift assay (EMSA) of EGR-1 DNA binding. The arrangement: made in house; host or cells: Sf21 insect cells (crude cell extract). The following applies: EGR-1 overexpressing Sf21 cell extract, biotin-labeled probe; FIG. 13. As for the experimental part: When a nucleic acid and a protein are bound to each other, the complex of the nucleic acid and the protein moves more slowly than the nucleic acid alone, so that in an EMSA, a band of the nucleic acid bound to the protein appears higher than a band of only the nucleic acid.
In detail, the protein-DNA binding was analyzed by purchasing a LightShift Chemiluminescence EMSA kit (ThermoFisher Scientific, Waltham, MA, USA). The probe sequence for EGR-1 was synthesized by Macrogen company (Seoul, Korea) by ordering a deoxynucleotide labeled with biotin at the EGR-1 binding sequence (5'-biotin-AGAGTGTGTCTCCTTCGCACACATC-3'). The EGR-1 protein used in the experiment was an Sf21 insect cell extract overexpressing human EGR-1 protein as described in Yeo et al. [Journal of Investigative Dermatology 2021; 141:1851-1855]. Wild-type Sf21 cell extract was used as a negative control. After reacting 3 µg of EGR-1 overexpressing Sf21 cell extract, 1 µl of the compound of the present invention at a concentration of 20 mM, 50 fmol of the biotin-labeled EGR-1 binding deoxyoligonucleotide probe, and 1 µg poly(dI-dC) (Amersham Pharmacia Biotech Inc) for 20 minutes, electrophoresis was performed on a 6% non-denaturing polyacrylamide gel. The electrophoresed sample was transferred to a nylon membrane (Immobilon-Ny+ Transfer membrane, Millipore) and soaked in 5% skim milk solution for 30 minutes. Then, horseradish peroxidase-conjugated streptavidin was added and reacted for 15 minutes, and after washing unbound proteins from the membrane, the EGR-1-DNA complex was detected on X-ray film using an enhanced chemiluminescence (ECL) detection system (ThermoFisher Scientific). The intensity of the EGR-1-DNA complex band was analyzed using the ImageJ program (National Institute of Health, USA), and the intensity of the sample without the compound was set to 100%, and relative intensities were measured.
For orientation: In EMSA bound probe runs differently from free probe, usually more slowly.

Another experiment concerns TSLP. The experiment in a line: RT-PCR of EGR-1 target gene mRNA in TNFα-stimulated HaCaT cells: TSLP. The note with it: 0, 5, 10, and 20 µM for 30 minutes, then TNFα 10 ng/mL for 12 hours, FIG. 14. In kind it is cell-based, human. Here is the method:
(§1) To determine whether the compounds of the present invention (Compounds 21, 23, and 25) inhibit expression of TSLP, IL-1β, and IL-6 genes, which are EGR-1 target genes playing a key role in atopic dermatitis exacerbation, the inhibitory effect of the compounds on mRNA expression of an EGR-1 target gene TSLP was evaluated by reverse transcription-polymerase chain reaction (RT-PCR) in HaCaT keratinocyte cells.
(§2) Specifically, HaCaT keratinocyte cells (purchased from Cell Lines Service, Eppelheim, Germany) were passaged at a seeding density of 1x10^6 cells per 100 mm cell culture dish in Dulbecco's modified Eagle's medium (Invitrogen Life Technologies) containing 10% fetal bovine serum (Invitrogen Life Technologies) and antibiotic-antifungal agent mix solution (Invitrogen Life Technologies), once every two days, and cultured at 37 °C in a 5% CO2 incubator.
(§3) HaCaT cells were treated with the compounds of the present invention (Compound 21, Compound 23, and Compound 25) at concentrations of 0, 5, 10, and 20 µM, respectively, for 30 minutes, followed by treatment with TNFα in a concentration of 10 ng/mL for 12 hours, after which the cells were harvested. Total RNA was extracted using TRIzol RNA isolation reagents (TRIzol Life Technologies Korea). A total of 0.5 µg of total RNA was reverse transcribed to synthesize complementary DNA (cDNA) according to the method recommended by the manufacturer using an iScript cDNA synthesis kit (Bio-Rad, Hercules, Calif., U.S.A.). PCR was performed using 0.0125 µg of double-stranded cDNA.
(§4) Glyceraldehyde-3-phosphate dehydrogenase (GAPDH), a housekeeping gene, was used as the control group. The double-stranded cDNA was denatured at 95 °C for 5 minutes and then subjected to cycles of reaction at 94 °C for 1 minute, 65 °C for 2 minutes, and 70 °C for 1 minute, repeated 30 times. The final product of PCR was electrophoresed on 1% agarose gel, stained with ethidium bromide (EtBr), and confirmed.

The target in experiment [2] is T1, EGR-1. The experiment in a line: EGR-1 DNA binding activity assay (EDBA). The note with it: EGR-1 DNA binding inhibitory activity; EGR-1 overexpressing cell lysate; absorbance at 450 nm; compound concentration not given. The arrangement: made in house. The gist of the method:
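Compound pre-incubated 30 min at room temperature with EGR-1-overexpressing cell lysate (10 mM Tris pH 7.5, 50 mM KCl, 2% BSA, 8% glycerol), then 1 h on avidin-immobilised biotin-EBS duplex DNA. Bound EGR-1 detected by antibody ELISA with HRP/TMB at 450 nm; % inhibition versus lysate-only wells.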

Another experiment concerns IL-1β. The experiment in a line: RT-PCR of EGR-1 target gene mRNA in TNFα-stimulated HaCaT cells: IL-1β. Format: cell-based, human. The following applies: 0, 5, 10, and 20 µM for 30 minutes, then TNFα 10 ng/mL for 12 hours, FIG. 14. As for the experimental part:
as §1, §2, §3, §4

The test system of another experiment is IL-6. As to the kind of experiment: RT-PCR of EGR-1 target gene mRNA in TNFα-stimulated HaCaT cells: IL-6. Format: cell-based, human. The following applies: 0, 5, 10, and 20 µM for 30 minutes, then TNFα 10 ng/mL for 12 hours, FIG. 14. As for the experimental part: as §1, §2, §3, §4
Experiment [3] deals with animal model of atopic dermatitis. As to the kind of experiment: DNCB-induced animal model of atopic dermatitis, topical application. Format: in vivo, BALB/c mice. The following applies: 0.1% applied to ear; for epidermal thickness / dermal thickness: day 22, H&E staining; for epidermal thickness: normal 24.47±2.353, DNCB only 37.27±4.393; for dermal thickness: normal 143.2±19.61, DNCB only 197.5±17.83; for macroscopic skin condition: day 22, FIG. 15B; for expression of filaggrin / expression of TSLP: immunofluorescence of skin tissue; for expression of filaggrin: FIG. 17B; for expression of TSLP: compared to positive control group, FIG. 17A; for expression of MPO (neutrophil marker) / expression of F4/80 (macrophage marker): immunohistochemistry; for expression of MPO (neutrophil marker): FIG. 16C; for expression of F4/80 (macrophage marker): FIG. 16D; for mast cell infiltration / number of mast cells infiltrated: toluidine blue staining; for mast cell infiltration: compared to the positive control group, FIG. 16A; for number of mast cells infiltrated: normal 11±3, DNCB 38±6.

T1 sequence (P18146 whole entry): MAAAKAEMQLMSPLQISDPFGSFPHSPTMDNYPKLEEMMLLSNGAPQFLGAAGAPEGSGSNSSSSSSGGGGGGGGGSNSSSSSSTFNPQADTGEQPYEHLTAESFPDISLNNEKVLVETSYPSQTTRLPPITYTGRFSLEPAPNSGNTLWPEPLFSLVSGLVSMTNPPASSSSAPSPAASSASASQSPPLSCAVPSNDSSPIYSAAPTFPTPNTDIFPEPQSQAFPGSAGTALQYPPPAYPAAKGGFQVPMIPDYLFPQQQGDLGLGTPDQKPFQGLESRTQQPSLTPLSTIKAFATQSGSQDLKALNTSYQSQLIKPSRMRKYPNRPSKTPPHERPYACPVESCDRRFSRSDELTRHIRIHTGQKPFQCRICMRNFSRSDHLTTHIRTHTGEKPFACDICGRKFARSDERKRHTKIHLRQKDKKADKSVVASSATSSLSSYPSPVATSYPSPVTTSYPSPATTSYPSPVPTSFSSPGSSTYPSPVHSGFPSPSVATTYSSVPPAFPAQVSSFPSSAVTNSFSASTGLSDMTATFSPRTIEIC

Consider `COc1ccc2c(c1)NC(=O)/C2=N\NC(=S)Nc1cccc([N+](=O)[O-])c1` [Compound 23, (Z)-2-(6-methoxy-2-oxoindolin-3-ylidene)-N-(3-nitrophenyl)hydrazin-1-carbothioamide], for which, on EGR-1 [1], the “DNA binding of EGR-1 (EGR-1-DNA complex band)” value is on record as “inhibited DNA binding of EGR-1 in a concentration-dependent manner”. The “expression level of TSLP mRNA” value with TSLP is recorded as “decreased dose-dependently”. The “Inhibition Rate (%)” value on EGR-1 [2] came to 67.63%. Also, the “expression level of IL-1β mRNA” value with IL-1β was “decreased dose-dependently”. The “expression level of IL-6 mRNA” value in the experiment on IL-6 was “decreased dose-dependently”. For the same compound, in experiment [3], the epidermal thickness worked out at 22.92±3.617 µm, the dermal thickness worked out at 147.5±8.302 µm, the macroscopic skin condition entry is “significant improvement in skin condition” and the expression of filaggrin result is given as “recovered to a level similar to normal tissue”. Moreover, in experiment [3], the “expression of TSLP” value is recorded as “significantly decreased”, the “expression of MPO (neutrophil marker)” value is listed as “decreased similar to normal tissue”, the “expression of F4/80 (macrophage marker)” value was “decreased similar to normal tissue” and the mast cell infiltration result was “significantly reduced”. Also, the “number of mast cells infiltrated” value in experiment [3] was 19±5 per 2.5 cm^2.
`COc1ccc2c(c1)NC(=O)/C2=N\NC(=S)Nc1ccc(C#N)cc1` [Compound 25, (Z)-N-(4-cyanophenyl)-2-(6-methoxy-2-oxoindolin-3-ylidene)hydrazinethioamide]: the “DNA binding of EGR-1 (EGR-1-DNA complex band)” value at EGR-1 [1] was “inhibited DNA binding of EGR-1 in a concentration-dependent manner”. Besides, the “expression level of TSLP mRNA” value in the experiment on TSLP is “decreased dose-dependently”. Further, the “Inhibition Rate (%)” value on EGR-1 [2] is 76.13%. For the same compound, the “expression level of IL-1β mRNA” value with IL-1β is recorded as “decreased dose-dependently”. For the same compound, in the experiment with IL-6, the “expression level of IL-6 mRNA” value was “decreased dose-dependently”. In addition, in experiment [3], the epidermal thickness came to 23.46±1.530 µm, the dermal thickness is on record as 157.8±17.05 µm, the macroscopic skin condition entry is listed as “significant improvement in skin condition” and the expression of filaggrin entry is reported as “recovered to a level similar to normal tissue”. In addition, in experiment [3], the “expression of TSLP” value is recorded as “significantly decreased”, the “expression of MPO (neutrophil marker)” value is “decreased similar to normal tissue”, the “expression of F4/80 (macrophage marker)” value is “decreased similar to normal tissue” and the mast cell infiltration entry was “significantly reduced”. For the same compound, in experiment [3], the “number of mast cells infiltrated” value is 15±5 per 2.5 cm^2.

The values are drawn from patent EP4799619A1, “COMPOUND TARGETING EGR-1 AND USE THEREOF FOR TREATMENT OF ATOPIC DERMATITIS” (AgeraMedi, Inc., priority 2023, dated 2025).
